# From the METLIN SMRT retention time set (Domingo-Almenara et al. 2019)
# Experiment: gradient 5% acetonitrile 3 min, to 50% in 2 min, to 85% in 15 min, held 3 min, 100 µL/min
# Conditions: column: Zorbax Extend-C18 2.1 x 50 mm; eluents: water / acetonitrile, 0.1% formic acid
# Summary of the method: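 Values are retention times taken from adduct peaks that software picked and an analyst inspected. The pure standards were run as mixtures of ~100 molecules on HPLC linked to a quadrupole time-of-flight mass spectrometer, in positive and negative ionization mode. A Zorbax Extend-C18 column (2.1 × 50 mm, 1.8 μm) was used at 100 μL/min with water and acetonitrile, each including 0.1% formic acid.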
row,RP-LC retention time [s],SMILES
1,685,COc1ccc(NC(=O)N2CC(N(C3CCOCC3)S(C)(=O)=O)C2)cc1F
2,734,CNC(=O)C1CN(C(=O)Nc2ccccc2C(F)(F)F)CC12CCCC2 (centres undefined)
3,676,Cc1ccc(NC(=O)CN2C(=O)CCc3cc(S(=O)(=O)N4CCCCC4C)ccc32)cc1N(C)C (centres undefined)
4,832,CNC(=O)c1ccc(-c2nc3cc(NS(=O)(=O)c4cc(F)ccc4C)ccc3n2C)cc1
5,686,CCNc1cc(N2CCC(CCC(=O)Nc3ccc(C)cc3C)CC2)ncn1
6,772,COc1cccc(N2CCN(C(=O)CN3CCN(Cc4ccc(C)cc4)C(=O)C3=O)CC2)c1
7,600,O=C(CSc1nccn1Cc1ccco1)Nc1ccccc1F
8,709,O=C(NCCc1c[nH]c2ccccc12)C1CCN(c2nnc(N3CCCCC3=O)s2)CC1
9,743,CC(C)Cn1c(=O)c(N2CCN(S(=O)(=O)c3ccccc3F)CC2)nc2ccncc21
10,669,Cc1nnc2ccc(S(=O)(=O)Nc3ccc4c(c3)OCO4)cn12
11,758,O=C1CCC2(CCN1)CCN(S(=O)(=O)c1ccc(Cl)cc1)CC2
12,687,CCC(=O)N1CCc2c(C(=O)NC(C)C)cccc21
13,671,O=C(CSc1nccn1-c1ccc(C(=O)NCc2cccs2)cc1)Nc1ccccc1
14,872,COc1ccc(C2Cn3nnc(C(=O)N4CCN(C(=O)c5cc(F)ccc5F)CC4)c3CO2)cc1 (centres undefined)
15,1170,COc1ccc(CN2C=C(C(=O)OCc3noc(-c4ccc(C)cc4)n3)C(C)=NS2(=O)=O)cc1
16,1020,COc1cc(-c2noc(CN3C(=O)COc4cc(Cl)ccc43)n2)cc(OC)c1OC
17,912,Cc1ccc(-n2nc(N3CCCN(S(=O)(=O)Cc4ccccc4)CC3)ccc2=O)cc1C
18,932,COC(=O)C1=CN(C2CC2)c2cc(N3CCCCC3)c(F)cc2S1(=O)=O
19,798,Cc1ccc(N2CC(c3noc(-c4ccncc4)n3)CC2=O)cc1 (centres undefined)
20,649,CCNC(=O)C1CCCN(c2nc3ncn(CC(=O)Nc4ccc5c(c4)OCO5)c(=O)c3s2)C1 (centres undefined)
21,574,CS(=O)(=O)N1CCCc2cc(C(=O)NCc3cccnc3)ccc21
22,752,Cc1ccn2c(NC(=O)c3cccc(C(F)(F)F)c3)c(-c3ccc(F)cc3)nc2c1
23,718,CCCC(NC(=O)CCc1ccccc1)C(=O)Nc1nc2ccccc2[nH]1 (centres undefined)

row,RP-LC retention time [s],SMILES
1,591,Nc1nc(CC(=O)Nc2ccc(CCNC[C@H](O)c3ccccc3)cc2)cs1
2,832,Cc1cccc(OCc2nc(CCN(C)C(=O)NCc3ccccc3)no2)c1
3,955,COC(=O)C1=CN(C2CC2)c2cc(N3CCN(C)CC3)c(F)cc2S1(=O)=O
4,1030,CCC(=O)N1CCc2c(-c3ccc(OC)cc3)cccc2[C@H]1C
5,564,CCNC(=O)N1CCCCCC1CN1CCCC1 (centres undefined)
6,641,C=CCNC(=O)c1cc(=O)[nH]c2c(Cl)cccc12
7,1090,Clc1ccc(Nc2c(-c3ccc(Cl)cc3)nc3ccc(Cl)cn23)cc1
8,607,Cc1noc(C)c1CCC(=O)N1CCCCC1c1nncn1C (centres undefined)
9,643,CN(C)CCn1nnc2cc(-c3noc(-c4ccc(C#N)cc4)n3)ccc21
10,718,COC(=O)c1cn(Cc2c(F)cccc2Cl)nc1S(=O)(=O)N(C)c1ccccc1
11,594,CCCN1CCN(CCCNC(=O)c2noc3c2CCCCC3)CC1
12,879,Cc1nn(C(C)C(=O)NC2CCCCC2)c(=O)c2nn(-c3ccccc3)c(C)c12 (centres undefined)
13,568,Cc1c(C(=O)N2CCC(C(=O)NC3CCN(Cc4ccccc4)CC3)CC2)sc2nc[nH]c(=O)c12
14,687,Cc1ccc(Oc2ccc(NS(=O)(=O)c3cccs3)cc2)nn1
15,679,Cc1nc(-c2ccncc2)cc2nn(CC(=O)Nc3ccc(F)c(Cl)c3)c(=O)n12
16,816,O=C(NC1CCc2ccccc21)C1CCCN(c2ncnc3c2oc2ccccc23)C1 (centres undefined)
17,844,CCC1=C(c2ccc(C)cc2)S(=O)(=O)N=C1N1CCC(C(=O)NCCCOC(C)C)CC1
18,559,Cc1ccc(CN2CC(=O)N(CCc3ccccn3)C(c3cccs3)C2=O)cc1 (centres undefined)
19,771,Cc1nc2cc(NC(=O)COc3ccccc3)ccc2s1
20,1030,CN(C)c1cccc(-c2nc(C3CC(=O)N(c4ccc(F)cc4)C3)no2)c1 (centres undefined)
21,870,O=C(c1cc(Cl)ccc1Cl)N1CCN(c2cc(-c3cccs3)[nH]n2)CC1
22,1020,Fc1cccc(Nc2ncnc3c2cnn3-c2ccccc2)c1
23,614,COc1ccc(NC(=O)CN2CCc3[nH]c4c(C)ccc(C)c4c(=O)c3C2)cc1OC

row,RP-LC retention time [s],SMILES
1,763,COC(=O)C1=CN(c2cccc(C#N)c2)c2cc(F)ccc2S1(=O)=O
2,661,Cn1nnnc1C1CCCN(C(=O)Nc2ccc3c(c2)OCCO3)C1 (centres undefined)
3,974,CCCCN1C(=O)CN(S(=O)(=O)c2ccc(C)cc2)CC1(C)C(=O)NCc1ccccc1 (centres undefined)
4,1140,O=c1c2cc(-c3cccs3)nn2cnn1Cc1nc(-c2cccc(C(F)(F)F)c2)no1
5,549,CSc1nnc(CCc2c(C)[nH]c(=O)[nH]c2=O)o1
6,910,COC(=O)c1ccc(NC(=O)C(=O)NCCc2ccc(N3CCCC3)cc2)cc1
7,964,CC1CCN(S(=O)(=O)c2ccc(-c3nnc(C(C)C)o3)o2)CC1
8,1110,C=CCN(Cc1nc(-c2ccc(C)cc2)no1)C(=O)Nc1cccc(C)c1
9,870,O=S(=O)(NCC(O)(c1ccccc1)C(F)(F)F)c1cc(F)ccc1F (centres undefined)
10,717,O=C(N[C@H]1C[C@@H]2C[C@H]1N(C(=O)c1ccccc1Cl)C2)c1ccccc1
11,938,O=c1n(Cc2cccc(F)c2)nc2c(S(=O)(=O)N3CCc4ccccc4C3)cccn12
12,665,CCCNC(=O)C1CCCN(c2ccc(SCC(=O)Nc3cccc(C)c3C)nn2)C1 (centres undefined)
13,1170,Cc1cc(SCC(=O)Nc2ccccc2Br)nc(-c2ccc(F)cc2)n1
14,1360,CCc1ccc(NC(=O)C2CCCN(c3nc4c(s3)c(C)nn4-c3ccc(OC)cc3)C2)cc1 (centres undefined)
15,847,Cc1ccc(C(=O)N2CC=C(C(=O)NC3CC3)CC2)cc1
16,1020,CCOc1ccc(-n2nc(CO)c(C(=O)NC3CCCC3)n2)cc1
17,887,Cc1ccccc1CNC(=O)c1cn(C)nc1S(=O)(=O)N1CCSCC1
18,876,O=C(NC(c1ccccc1)c1nnc(-c2ccccc2)o1)c1ccco1 (centres undefined)
19,625,CCc1nccn1Cc1nc(-c2ccc(F)cc2)no1
20,1120,CC1CCN(S(=O)(=O)c2cc(C(=O)N3CCN(c4cccc(Cl)c4)CC3)n(C)c2)CC1
21,824,Cc1cc(C)cc(C(=O)Nc2cnc(N3CCOCC3)nc2)c1
22,651,Cc1ccc(C(=O)N2CCN(c3nc(CN4CCOCC4)cs3)CC2)cc1
23,687,CCc1noc(-c2ccnc(-n3ncc(C(=O)NC4CCCC4)c3C)c2)n1

row,RP-LC retention time [s],SMILES
1,680,Cc1ccnc(N2CCC(C(=O)NCCSCc3ccco3)CC2)n1
2,886,CC(C)Cc1nc2nccc(-c3ccc(F)cc3)n2n1
3,838,Cc1noc(C)c1C(=O)N1CCCC1c1ccccc1Cl (centres undefined)
4,637,O=C(c1cnccn1)N1CCCCC1c1nncn1Cc1ccccc1 (centres undefined)
5,648,O=C(c1cnn2c(-c3ccc4c(c3)OCO4)ccnc12)N1CCN(Cc2ccc3c(c2)OCO3)CC1
6,853,COCCCNC(=O)C1CCN(c2ccc(Sc3ccc(C(C)C)cc3)nn2)CC1
7,822,COc1ccc(-c2cc3c4nnc(CCC(=O)NCc5ccccc5C(F)(F)F)n4ccn3n2)cc1
8,750,O=C([C@@H]1C[C@H](Oc2ccccc2)CN1C(=O)C1CCC1)N1CCCC1
9,1050,Cc1ccc(C)c(Cn2nc3c(S(=O)(=O)N4CCCCCC4)cccn3c2=O)c1
10,797,CC1CCC(NC(=O)C2CCN(S(=O)(=O)c3cc(C(=O)N(C)C)cs3)CC2)CC1 (centres undefined)
11,652,CCCn1nnc2cc(S(=O)(=O)N3CCCC(C(=O)N4CCN(c5ccccn5)CC4)C3)ccc21 (centres undefined)
12,692,COc1ccccc1CNC1=NCCNC12CCN(S(=O)(=O)c1ccccc1)CC2
13,706,Cc1ccc2nc(CN3CCN(C(=O)Nc4ccc(F)cc4F)CC3)oc2c1
14,745,CCN1C(=O)c2cccnc2Sc2cc(NC(=O)C3CCC3)ccc21
15,1200,COc1ccc(CNC(=O)C2CCCN(c3nc4c(s3)c(C)nn4-c3ccc(Cl)cc3)C2)cc1 (centres undefined)
16,739,O=C(CCc1ccccc1)NC1CCN(c2nnc3ccc(Cl)cn23)CC1
17,757,COc1cc(NC(=O)NC(C)C)c2ncccc2c1
18,576,CCn1cc(S(=O)(=O)N2C[C@@H](C(N)=O)[C@H](c3n[nH]c(C)n3)C2)cn1
19,705,Cc1cc(C)n2nc(SCC(=O)NCc3ccccc3)nc2n1
20,670,CCCOc1ccc(N2CCN(C(=O)c3cc(Cl)ccc3OC)CC2)nn1
